# Source: patent publication US10301299B2, “Glycosidase inhibitors” (Merck Patent GmbH, priority 2013, dated 2019)
# Read-outs that look alike come from different tables or passages of the source.
# Experiments:
# [1] = target: T1, His-Tagged hOGA (Homo sapiens, UniProt O60502); assay: Human O-GlcNAcase enzyme inhibition assay; type: biochemical
# T1 sequence (O60502 1-916): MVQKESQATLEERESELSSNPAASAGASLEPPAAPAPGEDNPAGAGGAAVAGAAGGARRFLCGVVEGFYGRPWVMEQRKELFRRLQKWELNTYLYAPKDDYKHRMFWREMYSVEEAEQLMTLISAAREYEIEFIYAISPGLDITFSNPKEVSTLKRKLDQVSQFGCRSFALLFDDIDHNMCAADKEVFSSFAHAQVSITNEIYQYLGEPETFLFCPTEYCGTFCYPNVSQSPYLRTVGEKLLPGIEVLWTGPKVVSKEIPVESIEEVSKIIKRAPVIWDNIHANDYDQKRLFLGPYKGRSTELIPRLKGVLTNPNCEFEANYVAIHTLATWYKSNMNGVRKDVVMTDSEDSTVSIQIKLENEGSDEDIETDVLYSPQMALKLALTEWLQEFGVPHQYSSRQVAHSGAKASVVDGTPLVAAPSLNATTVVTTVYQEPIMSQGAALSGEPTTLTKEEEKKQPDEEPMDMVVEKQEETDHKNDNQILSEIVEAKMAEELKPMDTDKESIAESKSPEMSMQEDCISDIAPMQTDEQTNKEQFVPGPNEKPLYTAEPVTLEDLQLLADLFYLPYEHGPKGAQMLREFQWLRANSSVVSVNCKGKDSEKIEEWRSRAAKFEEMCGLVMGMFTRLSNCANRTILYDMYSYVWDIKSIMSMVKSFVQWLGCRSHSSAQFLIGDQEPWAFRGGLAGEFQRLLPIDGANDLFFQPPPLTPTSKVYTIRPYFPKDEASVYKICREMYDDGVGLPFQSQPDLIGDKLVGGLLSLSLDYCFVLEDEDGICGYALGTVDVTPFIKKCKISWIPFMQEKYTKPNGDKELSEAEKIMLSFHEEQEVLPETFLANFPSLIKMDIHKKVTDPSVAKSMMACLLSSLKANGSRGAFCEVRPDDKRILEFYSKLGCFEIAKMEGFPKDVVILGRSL
# Description: The following reaction components were added to a final volume of 10 μL in Mcllvaine's Buffer (pH 6.5): 20 nM His-Tagged hOGA and 10 μM Fluorescein mono-beta-D-(2-deoxy-2-N-acetyl) glucopyranoside (FL-GlcNAc; Marker Gene Technologies Inc, Part # M1485). […] The amount of fluorescence measured was plotted against the concentration of inhibitor to produce a sigmoidal dose response curve, from which an IC50 was calculated.
# [2] = system: B35 rat neuroblastoma cells; assay: Cellular O-GlcNAcylation assay (tau O-GlcNAc S400, ICC); type: cell-based; conditions: Neuroblastoma cell, 16 h, tau O-GlcNAcylated at serine 400
# Description: The following day cells were treated with appropriate concentration of a solution of inhibitor for 16 h at 37° C. in 5% CO2. Cells were fixed in 100 μl 4% paraformaldehyde for 15 min at room temperature, followed by three washes in PBS buffer. The cells were then permeabilized with 0.1% Triton X-100 for 60 min at room temperature. After three washes in PBS the cells were blocked with 10% goat serum containing 1% BSA in PBS buffer for two hours at room temperature. The cells were then incubated with a monoclonal rabbit antibody specific for tau O-GlcNAcylated at serine 400 (Epitomics) at a 1:1000 dilution overnight at 4° C. […] To calculate an EC50 the total peak intensity was plotted against the concentration of inhibitor to produce a sigmoidal dose response curve.
# [3] = 20 nM His-Tagged hOGA, 10 μM FL-GlcNAc, pH 6.5, 60 min, read-out: hOGA enzyme inhibition (IC50)
SMILES,"IC50 [1, 3] [nM]",EC50 [2] [nM],IC50 [1] [nM]
"CC(=O)Nc1ncc(CN(C)CCCc2ccccc2)s1 [Compound 21, N-(5-{[methyl-(3-phenyl-propyl)-amino]-methyl}-thiazol-2-yl)-acetamide]",< 200,1000 to 10000,
"CC(=O)Nc1ncc(CN2CC(c3ccccc3)C2)s1 [Compound 22, N-[5-(3-phenyl-azetidin-1-ylmethyl)-thiazol-2-yl]-acetamide]",200 to 1000,1000 to 10000,
"CC(=O)Nc1ncc(CN2CCCCC2)s1 [Compound 25, N-(5-piperidin-1-ylmethyl-thiazol-2-yl)-acetamide]",1000 to 10000,200 to 1000,
"CC(=O)Nc1ncc(CN2CCC(C(C)C)CC2)s1 [Compound 26, N-[5-(4-isopropylpiperidin-1-ylmethyl)thiazol-2-yl]-acetamide]",< 200,1000 to 10000,
"CC(=O)Nc1ncc(CN2CCC(C3CCCCC3)CC2)s1 [Compound 27, N-(5-((4-cyclohexylpiperidin-1-yl)methyl)thiazol-2-yl)acetamide]",< 200,< 200,
"CC(=O)Nc1ncc(CN2CCC(Cc3ccccc3)CC2)s1 [Compound 28, N-(5-((4-benzylpiperidin-1-yl)methyl)thiazol-2-yl)acetamide]",,< 200,< 200
"CC(=O)Nc1ncc(CN2CCCC(c3ccccc3)C2)s1 (stereo not drawn) [Compound 29, N-(5-((3-phenylpiperidin-1-yl)methyl)thiazol-2-yl)acetamide]",< 200,1000 to 10000,
"CC(=O)Nc1ncc(CN2CCC(c3ccccc3F)CC2)s1 [Compound 30, N-(5-((4-(2-fluorophenyl)piperidin-1-yl)methyl)thiazol-2-yl)acetamide]",200 to 1000,200 to 1000,
"CC(=O)Nc1ncc(CN2CCC(c3cccc(C)c3)CC2)s1 [Compound 31, N-(5-((4-(m-tolyl)piperidin-1-yl)methyl)thiazol-2-yl)acetamide]",< 200,< 200,
"COc1cccc(C2CCN(Cc3cnc(NC(C)=O)s3)CC2)c1 [Compound 32, N-(5-((4-(3-methoxyphenyl)piperidin-1-yl)methyl)thiazol-2-yl)acetamide]",< 200,200 to 1000,
"COc1ccccc1C1CCN(Cc2cnc(NC(C)=O)s2)CC1 [Compound 33, N-(5-((4-(2-methoxyphenyl)piperidin-1-yl)methyl)thiazol-2-yl)acetamide]",200 to 1000,200 to 1000,
"CC(=O)Nc1ncc(CN2CCC(c3ccccc3C#N)CC2)s1 [Compound 35, N-(5-((4-(2-cyanophenyl)piperidin-1-yl)methyl)thiazol-2-yl)acetamide]",1000 to 10000,200 to 1000,
"CC(=O)Nc1ncc(CN2CCC(c3ccc(C#N)cc3)CC2)s1 [Compound 36, N-(5-((4-(4-cyanophenyl)piperidin-1-yl)methyl)thiazol-2-yl)acetamide]",200 to 1000,200 to 1000,
"CC(=O)Nc1ncc(CN2CCC(c3ccccc3O)CC2)s1 [Compound 37, N-(5-((4-(2-hydroxyphenyl)piperidin-1-yl)methyl)thiazol-2-yl)acetamide]",200 to 1000,< 200,
"CC(=O)Nc1ncc(CN2CCC(c3ccc(O)cc3)CC2)s1 [Compound 38, N-(5-((4-(4-hydroxyphenyl)piperidin-1-yl)methyl)thiazol-2-yl)acetamide]",< 200,200 to 1000,
"CC(=O)Nc1ncc(CN2CCC(c3cccc(O)c3)CC2)s1 [Compound 39, N-(5-((4-(3-hydroxyphenyl)piperidin-1-yl)methyl)thiazol-2-yl)acetamide]",200 to 1000,200 to 1000,
"CC(=O)Nc1ncc(C(C)N2CCC(c3ccccc3)CC2)s1 (stereo not drawn) [Compound 40, N-(5-(1-(4-phenylpiperidin-1-yl)ethyl)thiazol-2-yl)acetamide]",200 to 1000,200 to 1000,
"CC(=O)Nc1ncc(CN2CCC(F)(c3ccccc3)CC2)s1 [Compound 41, N-[5-(4-fluoro-4-phenyl-piperidin-1-ylmethyl)-thiazol-2-yl]-acetamide]",1000 to 10000,1000 to 10000,
"CC(=O)Nc1ncc(CN2CCC(c3ccc(F)cc3)CC2)s1 [Compound 42, N-(5-((4-(4-fluorophenyl)piperidin-1-yl)methyl)thiazol-2-yl)acetamide]",200 to 1000,200 to 1000,
"CC(=O)Nc1ncc(CN2CCC(c3ccccc3C)CC2)s1 [Compound 43, N-(5-((4-(o-tolyl)piperidin-1-yl)methyl)thiazol-2-yl)acetamide]",1000 to 10000,200 to 1000,
"CC(=O)Nc1ncc(CN2CCC(c3ccc(C(=O)O)cc3)CC2)s1 [Compound 45, 4-(1-((2-acetamidothiazol-5-yl)methyl)piperidin-4-yl)benzoic acid]",200 to 1000,1000 to 10000,
